Measured values from PMC9297976 (Journal of Applied Toxicology, 2021).

Tests used:
[1] = test system: Japanese medaka (Oryzias latipes); experiment: Fish Short‐Term Reproduction Assay; assay type: in vivo; conditions: for GSI Female / GSI Male / HSI Male / Length Female / Length Male / Weight Female / Weight Male: completion of exposure
[2] = target: T1, medaka Esr1 (mEsr1) (Oryzias latipes, UniProt P50241); experiment: cell-based; parameters: species or system Japanese medaka (Oryzias latipes); conditions: MAC = 1.0 × 10^−4 M
T1 sequence (P50241 1-620): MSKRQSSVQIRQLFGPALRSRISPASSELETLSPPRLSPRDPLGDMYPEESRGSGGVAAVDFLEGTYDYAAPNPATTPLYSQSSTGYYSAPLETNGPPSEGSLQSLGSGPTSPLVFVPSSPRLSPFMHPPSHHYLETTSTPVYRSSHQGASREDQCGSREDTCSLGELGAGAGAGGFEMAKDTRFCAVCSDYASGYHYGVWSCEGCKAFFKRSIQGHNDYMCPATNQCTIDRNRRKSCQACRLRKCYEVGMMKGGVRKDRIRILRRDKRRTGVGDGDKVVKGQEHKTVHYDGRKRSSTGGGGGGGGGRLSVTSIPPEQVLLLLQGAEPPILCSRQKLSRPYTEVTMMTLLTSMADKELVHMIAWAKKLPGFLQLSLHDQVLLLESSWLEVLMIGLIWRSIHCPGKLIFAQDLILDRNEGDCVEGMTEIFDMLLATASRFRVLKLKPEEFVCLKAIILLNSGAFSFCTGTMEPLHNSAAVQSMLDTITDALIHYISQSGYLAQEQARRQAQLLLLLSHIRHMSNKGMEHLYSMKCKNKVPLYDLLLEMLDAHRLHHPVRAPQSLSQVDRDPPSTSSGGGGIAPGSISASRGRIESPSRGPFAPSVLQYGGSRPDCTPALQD

[3] = target: T2, medaka ARβ (mArβ) (Oryzias latipes, UniProt D1MV73); experiment: Medaka ARβ reporter gene assay, antagonist assay; assay type: cell-based, Japanese medaka (Oryzias latipes); conditions: 11‐KT spiked at 50 nM (D); MAC = 3.2 × 10^−5 M
T2 sequence (D1MV73 1-744): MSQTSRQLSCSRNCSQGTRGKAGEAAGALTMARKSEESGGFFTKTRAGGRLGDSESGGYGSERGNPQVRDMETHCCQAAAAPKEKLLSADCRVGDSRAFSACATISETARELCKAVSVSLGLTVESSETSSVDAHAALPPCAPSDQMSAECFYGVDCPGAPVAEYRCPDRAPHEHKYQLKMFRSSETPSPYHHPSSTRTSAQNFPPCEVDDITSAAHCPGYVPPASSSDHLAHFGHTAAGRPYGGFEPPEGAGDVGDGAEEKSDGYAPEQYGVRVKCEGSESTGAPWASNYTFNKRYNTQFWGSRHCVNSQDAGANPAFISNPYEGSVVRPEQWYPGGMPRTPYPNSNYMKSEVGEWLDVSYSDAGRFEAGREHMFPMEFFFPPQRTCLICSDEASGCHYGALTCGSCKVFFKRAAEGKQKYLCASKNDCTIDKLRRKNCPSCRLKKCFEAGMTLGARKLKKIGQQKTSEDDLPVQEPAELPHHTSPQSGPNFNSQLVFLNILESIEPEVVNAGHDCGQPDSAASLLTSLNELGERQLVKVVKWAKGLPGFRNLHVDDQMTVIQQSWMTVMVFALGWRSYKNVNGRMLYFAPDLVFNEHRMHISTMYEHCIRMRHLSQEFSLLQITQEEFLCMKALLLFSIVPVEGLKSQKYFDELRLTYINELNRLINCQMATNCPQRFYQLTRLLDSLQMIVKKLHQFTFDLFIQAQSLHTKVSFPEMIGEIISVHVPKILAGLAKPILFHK

[4] = target: T1, medaka Esr1 (mEsr1); experiment: Medaka Esr1 reporter gene assay, antagonist assay; assay type: cell-based, Japanese medaka (Oryzias latipes)
[5] = target: T2, medaka ARβ (mArβ); experiment: Medaka ARβ reporter gene assay, agonist assay; assay type: cell-based, Japanese medaka (Oryzias latipes); conditions: MAC = 1.0 × 10^−4 M
[6] = 18.5 mg/L measured, 21 d, sig. ↑ vs control
[7] = measured concentration 2.25 mg/L
[8] = measured concentration 4.76 mg/L
[9] = measured concentration 8.72 mg/L
[10] = measured concentration 18.5 mg/L

O=C1NC(=O)C(c2ccccc2)(c2ccccc2)N1 [PHT, Phenitoin, reference compound]
Fertility rate ([1]; 2.25 mg/L measured, 21 d): 92 ± 2.8%
Hepatic VTG, female ([1]; 2.25 mg/L measured, 21 d): 685 ± 110 ng/mg‐liver
Hepatic VTG, male ([1]; 2.25 mg/L measured, 21 d): 1.4 ± 0.5 ng/mg‐liver
Mortality ([1]; 2.25 mg/L measured, 21 d): 0.0%
Mortality, number of dead fish ([1]; 2.25 mg/L measured, 21 d): 0
Number of fertilized eggs (per female per day) ([1]; 2.25 mg/L measured, 21 d): 18 ± 4.3
Number of total eggs (per female per day) ([1]; 2.25 mg/L measured, 21 d): 20 ± 5.0
SSC female (joint plates with papillary processes) ([1]; 2.25 mg/L measured, 21 d): 0 ± 0
SSC male (joint plates with papillary processes) ([1]; 2.25 mg/L measured, 21 d): 95 ± 14
Abnormal behavior (in words) ([1]; 4.76 mg/L and above): fish frequently showed abnormal behavior such as loss of balance
Fertility rate ([1]; 4.76 mg/L measured, 21 d): 86 ± 9.3%
Hepatic VTG, female ([1]; 4.76 mg/L measured, 21 d): 1,013 ± 183 ng/mg‐liver
Hepatic VTG, male ([1]; 4.76 mg/L measured, 21 d): 4.2 ± 6.7 ng/mg‐liver
Mortality ([1]; 4.76 mg/L measured, 21 d): 0.0%
Mortality, number of dead fish ([1]; 4.76 mg/L measured, 21 d): 0
Number of fertilized eggs (per female per day) ([1]; 4.76 mg/L measured, 21 d): 17 ± 3.2
Number of total eggs (per female per day) ([1]; 4.76 mg/L measured, 21 d): 20 ± 2.0
SSC female (joint plates with papillary processes) ([1]; 4.76 mg/L measured, 21 d): 0 ± 0
Hepatic VTG, female ([1]; 8.72 mg/L measured, 21 d): 661 ± 199 ng/mg‐liver
Hepatic VTG, male ([1]; 8.72 mg/L measured, 21 d): 1.0 ± 0.4 ng/mg‐liver
Mortality ([1]; 8.72 mg/L measured, 21 d): 4.2%
Mortality, number of dead fish ([1]; 8.72 mg/L measured, 21 d): 1
SSC female (joint plates with papillary processes) ([1]; 8.72 mg/L measured, 21 d): 0 ± 0
SSC male (joint plates with papillary processes) ([1]; 8.72 mg/L measured, 21 d): 99 ± 21
Fertility rate ([1]; 8.72 mg/L measured, 21 d, sig. ↓ vs control): 49 ± 12%
Hepatic VTG, female ([1]; 18.5 mg/L measured, 21 d): 693 ± 243 ng/mg‐liver
Hepatic VTG, male ([1]; 18.5 mg/L measured, 21 d): 1.4 ± 0.9 ng/mg‐liver
SSC female (joint plates with papillary processes) ([1]; 18.5 mg/L measured, 21 d): 0 ± 0
SSC male (joint plates with papillary processes) ([1]; 18.5 mg/L measured, 21 d): 85 ± 15
Mortality [1, 6]: 33%
Mortality, number of dead fish [1, 6]: 8
Fertility rate ([1]; 18.5 mg/L measured, 21 d, sig. ↓ vs control): 18 ± 4.1%
Change of hepatic VTG levels in females (in words) ([1]; 21 d): did not reduce
Fecundity, number of total eggs (in words) ([1]; 21 d): statistically significant decrease
LOECmVTG ([1]; LOEC on VTG induction in males): ND (>18,500) μg/L
LOECREPRO ([1]; LOEC on reproduction (fecundity and/or fertility)): 8,720 μg/L
LOECTOX ([1]; lowest observed effect concentration on mortality): 4,760 μg/L
GSI Female [1, 7]: 8.3 ± 0.8%
GSI Male [1, 7]: 1.32 ± 0.77%
HSI Male [1, 7]: 1.4 ± 0.36%
Length Female [1, 7]: 35.9 ± 0.4 mm
Length Male [1, 7]: 35.9 ± 0.6 mm
Weight Female [1, 7]: 466 ± 26 mg
Weight Male [1, 7]: 435 ± 26 mg
GSI Female [1, 8]: 9.0 ± 1.4%
GSI Male [1, 8]: 1.00 ± 0.26%
HSI Male [1, 8]: 1.6 ± 0.35%
Length Female [1, 8]: 35.5 ± 1.0 mm
Length Male [1, 8]: 36.5 ± 1.5 mm
Weight Female [1, 8]: 463 ± 10 mg
Weight Male [1, 8]: 435 ± 63 mg
GSI Female [1, 9]: 19.3 ± 10%
GSI Male [1, 9]: 1.04 ± 0.31%
HSI Male [1, 9]: 2.2 ± 0.30%
Length Female [1, 9]: 36.0 ± 0.5 mm
Length Male [1, 9]: 36.5 ± 0.1 mm
Weight Female [1, 9]: 576 ± 28 mg
Weight Male [1, 9]: 415 ± 31 mg
GSI Female [1, 10]: 17.0 ± 9.7%
GSI Male [1, 10]: 0.44 ± 0.26%
HSI Male [1, 10]: 3.4 ± 0.47%
Length Female [1, 10]: 37.5 ± 1.4 mm
Length Male [1, 10]: 38.4 ± 1.4 mm
Weight Female [1, 10]: 609 ± 67 mg
Weight Male [1, 10]: 507 ± 83 mg
Agonistic activity [2]: NE (MAC = 1.0 × 10^−4 M)
Antagonistic activity [3]: NE (MAC = 3.2 × 10^−5 M)^(D)
Antagonistic activity on mEsr1 (in words) ([4]; antagonist assays): inhibited the transcriptional activity on mEsr1 by E2
In vitro positive: aEsr ([4]; mode of action in which IC50 or IC30 was obtained in RGA): aEsr
IC50 ([4]; read-out: Antagonistic activity IC50, E2 spiked at 0.2 nM (A)): 2100 nM
Agonistic activity [5]: NE (MAC = 1.0 × 10^−4 M)
